Laboratory results reported in PubChem BioAssay (NCI).
“And” between values parts separate entries of the source, which are not always exact repeats. Equal values may be shown once.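 The compound was tested at five concentrations on cells cultured in 96-well plates, with a 48-hour exposure period. The concentration for 50% growth inhibition is given as GI50. At the TGI there is no net growth.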

Tests used:
Assay in all cases: NCI-60 cell line screen, 48 h
[1] = tested on: BT-549 breast
[2] = tested on: HT29 colon
[3] = tested on: K-562 leukemia
[4] = tested on: KM12 colon
[5] = tested on: MALME-3M melanoma
[6] = tested on: NCI-H23 lung
[7] = tested on: OVCAR-8 ovarian
[8] = tested on: RPMI-8226 leukemia
[9] = tested on: SR leukemia
[10] = tested on: SW-620 colon

Row | Compound | GI50 [1] [µM] | TGI [1] | GI50 [2] [µM] | TGI [2] | GI50 [3] [µM] | TGI [3] | GI50 [4] [µM] | TGI [4] | GI50 [5] [µM] | TGI [5] | GI50 [6] [µM] | TGI [6] | GI50 [7] [µM] | TGI [7] | GI50 [8] | TGI [8] | GI50 [9] [µM] | TGI [9] | GI50 [10] | TGI [10]
1 | COc1ccc(/C=C2/CN(C(=O)c3ccccc3F)C/C(=C\c3ccc(OC)cc3)C2=O)cc1 | 2.05 | 4.32 µM | 1.96 | 3.78 µM | 3.49 | > 100 µM | 1.91 | 3.59 µM | 5.83 | 21.3 µM | 5.03 | 24.3 µM | 3.4 | 85.1 µM | 0.242 µM | 0.714 µM | 0.884 | 6.33 µM | 1.86 µM | 3.84 µM
2 | COC1/C=C/O[C@@]2(C)Oc3c(C)c(O)c4c(O)c(cc(O)c4c3C2=O)NC(=O)/C(C)=C\C=C\[C@H](C)C(O)[C@@H](C)[C@@H](O)[C@@H](C)[C@H](OC(C)=O)[C@@H]1C (some centres undefined) | 29 | 37.7 µM and 84.4 µM | 11.6 | 24.3 µM and 34.5 µM | 4.47 | 21.8 µM and 82.6 µM | 19 | 35.4 µM and 97.2 µM | 12.8 | 25.9 µM and 77.9 µM | – | 33.8 µM | 14.9 | 29.8 µM and 57.4 µM | 2.14 µM and 7.37 µM | 17.2 µM and 47.4 µM | 3.92 | 20.6 µM and 42.7 µM | 2.72 µM and 7.91 µM | 13.6 µM and 21.9 µM
3 | O=S(=O)(c1cccc(C(F)(F)F)c1)N1c2ccccc2-n2cccc2C1c1cccnc1 (centres undefined) | – | > 71.8 µM | – | > 58 µM | – | > 86.4 µM | – | > 100 µM | – | > 54.5 µM | – | > 100 µM | – | > 100 µM | – | > 57.7 µM | – | 71.9 µM | – | > 60.4 µM
4 | Cc1c(Cl)cccc1NC(=O)CC1Sc2ccccc2NC1=O (centres undefined) | – | > 100 µM | – | 63.3 µM | – | 99.7 µM and > 100 µM | – | > 91.6 µM and 45.9 µM | – | 50.7 µM and 47.2 µM | – | 70 µM and > 100 µM | – | 33.3 µM and 43.3 µM | – | > 100 µM | – | 56.7 µM | 11 µM and 26.3 µM | 56.8 µM and 77.3 µM
5 | COc1cc(OC)c(-c2cc(=O)c3c(OC)c(OC)c(OC)c(OC)c3o2)cc1OC | – | > 100 µM | – | > 100 µM | – | > 100 µM | – | > 100 µM | – | > 100 µM | – | > 100 µM | – | > 100 µM | – | > 100 µM | – | > 100 µM | – | > 100 µM
6 | O=C1C=C(SCCO)C(=O)c2ccccc21 | 1.55 | 2.98 µM | 2.58 | 6.73 µM | 1.28 | 4.25 µM | 2.61 | 9.86 µM | 1.81 | 3.29 µM | 1.49 | 3.42 µM | 2.89 | 10.8 µM | 2.09 µM | 5 µM | 2.17 | 5.75 µM | 1.85 µM | 3.73 µM
7 | O=C(NNc1nc2cc(F)ccc2n2c(CN3CCOCC3)ccc12)c1ccccc1 | 0.559 | 6.57 µM | 0.449 | 7.48 µM | 0.336 | 4.21 µM | 0.369 | 2.45 µM | 0.379 | 1.81 µM | 0.567 | 2.7 µM | 0.321 | 7.66 µM | 0.263 µM | 2.6 µM | 0.0639 | – | 0.33 µM | 2.11 µM
8 | COc1cc2c(cc1OC)C13CCN4CC5=CCOC(CC(=O)O)C(C5CC41)C3N2 (centres undefined) | – | > 100 µM | – | > 100 µM | – | > 100 µM | – | > 100 µM | – | > 100 µM | – | > 100 µM | – | > 100 µM | – | > 100 µM | – | > 100 µM | – | > 100 µM
9 | COc1ccc(-c2nc(-c3nc4ccc(F)cc4[nH]3)cc3c2[nH]c2ccccc23)cc1 | 3.18 | 9.72 µM | 2.96 | 9.01 µM | 2.79 | > 100 µM | 2.78 | 12.2 µM | 2.33 | 8.99 µM | 3.01 | 10.9 µM | 1.78 | 6.69 µM | 1.16 µM | 3.92 µM | 3.34 | > 100 µM | 3.73 µM | > 100 µM
10 | CO/N=C(\c1ccccc1)c1cnn(-c2ccccc2)c1N | > 25 | > 25 µM | > 25 | > 25 µM | > 25 | > 25 µM | > 25 | > 25 µM | > 25 | > 25 µM | > 25 | > 25 µM | > 25 | > 25 µM | > 25 µM | > 25 µM | > 25 | > 25 µM | > 25 µM | > 25 µM
11 | O=C1C(=O)c2ccc(Br)cc2-c2cc(Br)ccc21 | 7.69 | > 95.3 µM | > 74.3 | > 100 µM | 0.799 | > 29.8 µM | 9.65 | > 100 µM | 7.74 | > 52.3 µM | 2.56 | 13.2 µM | 0.852 | 2.57 µM | 1.63 µM | 6.82 µM | 0.998 | 2.92 µM | 0.84 µM | 2.91 µM
12 | Cc1nc2sc(C(=O)Nc3cccc4ccccc34)c(N)c2cc1C(C)O (centres undefined) | 0.264 | > 13.8 µM | 0.191 | 14.9 µM | 0.157 | > 50 µM | 0.199 | > 50 µM | 0.265 | > 50 µM | 0.394 | > 50 µM | 0.368 | > 50 µM | 0.223 µM | > 50 µM | 0.15 | > 50 µM | 0.175 µM | > 50 µM
13 | Cc1c(Cl)ccc2c1NC(=O)C2(O)CC(=O)c1ccc(Cl)cc1Cl (centres undefined) | – | > 50 µM | – | > 50 µM | – | > 50 µM | – | > 50 µM | – | > 50 µM | – | > 50 µM | – | > 50 µM | – | > 50 µM | – | 0.826 µM | – | > 50 µM
14 | Cc1ccc(NS(=O)(=O)c2ccc(-c3cnc(C4CC4)o3)cc2)cc1 | 5.14 | 19.7 µM | 2.34 | 11 µM | 0.519 | 16.3 µM | 2.53 | 15.9 µM | 2.48 | 17.6 µM | 4.1 | 17.9 µM | 5.24 | 24.3 µM | 2.82 µM | 12.6 µM | 0.316 | 17.7 µM | 2.25 µM | 13.2 µM
